The record followed here is PubChem BioAssay (NCI).

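All cell lines were grown in 96-well plates and treated with compound for 48 hours. GI50: concentration for 50% inhibition of growth. TGI: concentration producing complete growth inhibition.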

Holding throughout (test): NCI anticancer screen, dose series, 48 h
For experiment [1], the system named is NCI-H23 lung.
Experiment [2] relates to NCI-H460 lung.
Experiment [3] has as its system ACHN renal.
Experiment [4] relates to EKVX NSCLC.
Experiment [5] concerns HOP-62 NSCLC.
For experiment [6], the system named is LXFL 529 NSCLC.
The subject of experiment [7] is HT29 colon.
The subject of experiment [8] is MOLT-4 leukemia.
Experiment [9] deals with OVCAR-8 ovarian.
Experiment [10] has as its system SK-MEL-2 melanoma.

For `O=C1C2C(C(=O)N1OS(=O)(=O)c1ccccc1)N(Cc1ccccc1)C(=O)N2Cc1ccccc1` (stereo not drawn), the TGI in [1], in [2], in [3], in [4], in experiment [5] and in experiment [6] was more than 100 µM each time. The TGI in experiment [7] and in [8] was more than 100 µM throughout.
Regarding `COC1(OC)CCC2C1C1CCC(OC)(OC)C21` (stereo not drawn), the TGI in experiment [1], in [9], in [3], in [4], in experiment [5] and in experiment [6] was more than 50 µM throughout. Besides, the TGI in experiment [7], in experiment [10] and in [8] was more than 50 µM each time.
For `N#CC1C(C#N)C2(c3ccccc3)C(c3ccccc3)=NN(c3ccccc3)CC12` (stereo not drawn), the TGI in [9], in experiment [2], in experiment [3], in experiment [4], in [6] and in [10] was more than 100 µM each time. The TGI in experiment [8] was more than 100 µM.
Take `COc1cc2c(cc1OC)-c1c3cc(O)ccc3nn[n+]1CC2`: the TGI in experiment [1], in experiment [9], in experiment [2], in [4], in experiment [5] and in experiment [6] was more than 100 µM in each case. For the same compound, the TGI in experiment [7] and in [8] was more than 100 µM each time.
Consider `CCCCC(=O)OCC(=O)[C@]1(O)Cc2c(O)c3c(c(O)c2[C@@H](OC2CC(NC(=O)C(F)(F)F)C(O)C(C)O2)C1)C(=O)c1c(OC)cccc1C3=O` (stereo partly drawn), for which the TGI in experiment [1] was 1.98 µM; in [9], more than 39.6 µM; in [2] it was 2.48 µM; in [3], 3.04 µM; in experiment [4] it was 13.5 µM; in experiment [5] it was 0.988 µM. Further, the TGI in [6] is more than 32.7 µM; in [7], more than 100 µM; in [10], 6.01 µM.
Regarding `COC1=CC(c2ccc[nH]2)=N/C1=C\c1[nH]c(C)c(C(=O)OC(C)C)c1C`, the GI50 in [1] is 0.0702 µM; in experiment [9], 0.0397 µM; in [2], 0.0269 µM; in experiment [3], 0.0456 µM; in experiment [4] it was 0.0799 µM; in [5] it was 0.123 µM. The values for the GI50 in experiment [7], in experiment [10] and in experiment [8] were 0.0236 µM, 0.02 µM and 0.0346 µM, respectively. Further, the TGI in experiment [1] worked out at 1.74 µM; in [9], 1.04 µM; in experiment [2] it was 1.63 µM; in experiment [3] it was 1.2 µM; in [4], 2.31 µM; in experiment [5], 1.84 µM. The figures for the TGI in experiment [7], in experiment [10] and in [8] were 0.439 µM, 0.0525 µM and 3.51 µM, respectively.
Regarding `O=C1/C(=C/c2ccccc2)CN(C(=O)C(Cl)(Cl)Cl)C/C1=C\c1ccccc1`, the TGI in [1] was determined as 6.8 µM; in experiment [9] it was 3.1 µM; in experiment [2] it was 4.17 µM; in experiment [3], 4.62 µM; in experiment [6], 3.38 µM; in [7], 2.75 µM. In addition, the TGI is 10.3 µM in [10] and 5.77 µM in [8].
Regarding `COC1=CC(=O)c2nc(-c3ccncc3)[nH]c2C1=O`, the GI50 in experiment [1], in experiment [9], in [2], in experiment [3], in [4] and in experiment [5] was more than 100 µM throughout. Further, the GI50 in experiment [7], in [10] and in [8] was more than 100 µM each time. The TGI in experiment [1], in experiment [9], in experiment [2], in [3], in experiment [4] and in [5] was more than 100 µM each time. The TGI in experiment [7], in [10] and in experiment [8] was more than 100 µM throughout.
On to `O=C1C(Cl)=C(Nc2cccc(Cl)c2)C(=O)N1Cc1ccc(Cl)cc1Cl`, for which the GI50 in experiment [1] is 2.14 µM; in [9] it was 0.0603 µM; in [2] it was 2.68 µM; in experiment [3], 0.409 µM; in experiment [4] it was 9.31 µM; in [5], 5.61 µM. Also, the GI50 is 0.971 µM in [7] and 1.6 µM in experiment [10]. Moreover, the TGI in experiment [1] was 25.6 µM; in experiment [9], more than 36.1 µM; in experiment [2], 21 µM; in experiment [3], 7.71 µM; in experiment [4], 34.4 µM; in experiment [5], 22.8 µM. Further, the TGI in experiment [7] is 14.7 µM; in experiment [8], more than 100 µM.
In the case of `CC(C)C/C(CC(=O)CCC(=O)Nc1ccccc1[N+](=O)[O-])=N\NC(=O)c1cc2ccccc2cc1O`, the TGI was more than 100 µM in experiment [1]; 95.8 µM in experiment [9]; more than 100 µM in experiment [2]; more than 100 µM in experiment [3]; more than 100 µM in experiment [4]; more than 100 µM in experiment [5]. In addition, the TGI in experiment [6], in experiment [7] and in experiment [8] was more than 100 µM throughout.
Take `O=C(O)CCc1coc2ccc(O)cc12`: the TGI in experiment [1], in experiment [9], in experiment [2], in experiment [3], in experiment [4] and in experiment [5] was more than 100 µM each time. Besides, the TGI in experiment [6], in experiment [7] and in experiment [8] was more than 100 µM throughout.
Regarding `O=C(N/C(=C\c1ccc(/C=C(\NC(=O)c2ccccc2)c2nc3cc([N+](=O)[O-])ccc3[nH]2)cc1)c1nc2cc([N+](=O)[O-])ccc2[nH]1)c1ccccc1`, the TGI in [1], in [9], in experiment [3], in [4], in experiment [5] and in experiment [6] was more than 100 µM each time. Besides, the TGI in experiment [7] is more than 100 µM; in [10] it was 83.3 µM; in experiment [8] it was more than 100 µM.
